Laboratory results reported in patent publication US7910559B2, “Decladinosyl-macrolides with anti-inflammatory activity” (GlaxoSmithKline istrazivacki centar Zagreb d.o.o., priority 2005, dated 2011).

Legend:
Format in all cases: cell-based
human TNF-α = assay: Inhibition of TNF-α production by stimulated human peripheral blood leukocytes in vitro (ELISA); conditions: PBL
Procedure, shortened: (§1)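 Human PBL from healthy donors preincubated 2 h at 37 °C with compound, then stimulated overnight with 2 μg/mL LPS, 1 μg/mL PMA or 120 μg/mL zymosan. Supernatant cytokines measured by sandwich ELISA. % inhibition is relative to stimulated, untreated cells.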

human IL-1β = assay: Inhibition of IL-1β production by stimulated human peripheral blood leukocytes in vitro (ELISA); conditions: PBL
Procedure, shortened: as §1

human IL-6 = assay: Inhibition of IL-6 production by stimulated human peripheral blood leukocytes in vitro (ELISA); conditions: PBL
Procedure, shortened: as §1

human IL-8 = assay: Inhibition of IL-8 production by stimulated human peripheral blood leukocytes in vitro (ELISA); conditions: PBL
Procedure, shortened: as §1

[1] = test system: human peripheral blood mononuclear cells (PBMC); assay: Human peripheral blood mononuclear cell proliferation in vitro ((3H)thymidine incorporation)
Method: Substances, used in in vitro experiments, were dissolved in dimethyl sulfoxide (DMSO) (Kemika, Croatia) at concentrations of 50 mM and 10 mM and were further diluted to the final concentrations of […] in 1 mL Dulbecco's modified Eagle medium (DMEM) supplemented with 1% heat inactivated fetal bovine serum (FBS), 1% glutamax, 50 U/ml penicillin, 50 μg/ml streptomycin and 2.5 μg/mL Fungizone (amphotericin B). Media and all media supplements were purchased from Gibco, Australia, except FBS that was from Sigma, USA.
Heparinized peripheral blood was obtained from healthy donors, and peripheral blood mononuclear cells (PBMC) were isolated by Histopaque 1077 (Sigma, USA) density centrifugation at 400 g for 30 minutes. Collected PBMC were centrifuged in plasma at 400 g/10 min, resuspended and washed in RPMI 1640 (Institute of Immunology, Croatia) by centrifugation.
Influence of substances at two different concentrations (50 μM and 10 μM) on proliferation of human peripheral blood mononuclear cells (PBMC) was assessed.
Heparinized peripheral blood was obtained from healthy donors, and PBMC were isolated by Histopaque 1077 (Sigma, USA) density centrifugation at 400 g for 30 minutes. 5×10^4 cells/well were cultured for 3 days in the RPMI medium as described above, in the presence (positive control) or absence (negative control) of stimulators [PHA (2.5 μg/mL) (Sigma, USA) or both PMA (10 ng/mL) (Sigma, USA) and ionomycin (500 ng/mL) (Calbiochem, USA)] and tested substances at 37° C. in 5% CO2 and 90% humidity. The cells were pulsed with 1 μCi of (^3H)thymidine (Amersham, USA) per well during the last 18 h of the cultures and were harvested on a 96-well filter (Packard Bioscience, USA) with a multiple cell harvester (Packard, USA). The incorporation of (^3H)thymidine in activated cells was measured by TopCount NXT (Packard, USA).
Inhibition of cell proliferation (as a percentage) was calculated using the following formula: % inhibition=(1−(^3H)thymidine incorporation expressed in counts per minute (cpm) in sample/(3H)thymidine incorporation expressed in cpm in positive control)×100 where “positive control” refers to stimulated samples not treated with substances.

[2] = LPS stimulation, compound 10 μM
[3] = LPS stimulation, compound 50 μM
[4] = PMA stimulation, compound 10 μM
[5] = PMA stimulation, compound 50 μM
[6] = zymosan stimulation, compound 10 μM
[7] = zymosan stimulation, compound 50 μM

3-O-(3-Diethylamino-propionyl)-3-O-decladinosyl-6-O-methyl-9a-aza-9a-homoerythromycin A [Example 2]
Percentage of inhibition of TNF-α production (human TNF-α; [2]): 37% | Percentage of inhibition of TNF-α production (human TNF-α; [3]): 80% | Percentage of inhibition of TNF-α production (human TNF-α; [4]): 34% | Percentage of inhibition of TNF-α production (human TNF-α; [5]): 55% | Percentage of inhibition of TNF-α production (human TNF-α; [6]): 13% | Percentage of inhibition of TNF-α production (human TNF-α; [7]): 60% | Percentage of inhibition of IL-1β production (human IL-1β; [2]): 83% | Percentage of inhibition of IL-1β production (human IL-1β; [3]): 91% | Percentage of inhibition of IL-1β production (human IL-1β; [4]): 60% | Percentage of inhibition of IL-1β production (human IL-1β; [5]): 78% | Percentage of inhibition of IL-1β production (human IL-1β; [6]): 96% | Percentage of inhibition of IL-1β production (human IL-1β; [7]): 94% | Percentage of inhibition of IL-6 production (human IL-6; [2]): 40% | Percentage of inhibition of IL-6 production (human IL-6; [3]): 94% | Percentage of inhibition of IL-6 production (human IL-6; [4]): 17% | Percentage of inhibition of IL-6 production (human IL-6; [5]): 68% | Percentage of inhibition of IL-6 production (human IL-6; [6]): 45% | Percentage of inhibition of IL-6 production (human IL-6; [7]): 91% | Percentage of inhibition of IL-8 production (human IL-8; [2]): 40% | Percentage of inhibition of IL-8 production (human IL-8; [3]): 96% | Percentage of inhibition of IL-8 production (human IL-8; [4]): 0% | Percentage of inhibition of IL-8 production (human IL-8; [5]): 92% | Percentage of inhibition of IL-8 production (human IL-8; [6]): 32% | Percentage of inhibition of IL-8 production (human IL-8; [7]): 87% | Percentage of inhibition of proliferation of stimulated PBMC ([1]; PHA stimulation, compound 10 μM): 80% | Percentage of inhibition of proliferation of stimulated PBMC ([1]; PHA stimulation, compound 50 μM): 98% | Percentage of inhibition of proliferation of stimulated PBMC ([1]; PMA + ionomycin stimulation, compound 10 μM): 0% | Percentage of inhibition of proliferation of stimulated PBMC ([1]; PMA + ionomycin stimulation, compound 50 μM): 99%
